In brackets after ≈: the same amount, converted by molar mass.
Tests used:
Assay in all cases: Antibacterial activities, MIC
Type in all cases: cell-based
[1] = system: Staphylococcus aureus 209-P
[2] = system: Klebsiella pneumoniae EK-6; conditions: EK6
[3] = system: Pseudomonas aeruginosa EP-01; conditions: EP01
[4] = system: Serratia marcescens ES-75; conditions: ES75
Morganella morgani EP-14 = conditions: EP14
Escherichia coli NIHJ = system: Escherichia coli NIHJ

Row | MIC [1] [µg/mL] | MIC [2] [µg/mL] | MIC [3] [µg/mL] | MIC [4] [µg/mL] | MIC (Morganella morgani EP-14) [µg/mL] | MIC (Escherichia coli NIHJ) [µg/mL] | Compound
1 | 0.2 (≈ 0.359 µM) | ≤ 0.025 | 1.56 (≈ 2.8 µM) | 0.1 (≈ 0.18 µM) | ≤ 0.025 | ≤ 0.025 | C[C@H](C(N)=O)[N+](C)(C)C/C=C/C1=C(C(=O)[O-])N2C(=O)[C@@H](NC(=O)/C(=N\OCF)c3nsc(N)n3)[C@H]2SC1 [Example 18, 7β-[2-(5-Amino-1,2,4-Thiadiazol-3-yl)-(Z)-2-Fluoromethyoxyiminoacetamido]-3-[(E)-3-[((R)-1Carbamoylethyl)dimethylammonio]-1-propenyl]-3-Cephem-4-Carboxylate]
2 | 0.2 (≈ 0.359 µM) | ≤ 0.025 | 0.8 (≈ 1.44 µM) | 0.1 (≈ 0.18 µM) | ≤ 0.025 | ≤ 0.025 | CC[N+](C)(C/C=C/C1=C(C(=O)[O-])N2C(=O)[C@@H](NC(=O)/C(=N\OCF)c3nsc(N)n3)[C@H]2SC1)CC(N)=O (stereo partly drawn) [Example 14, 7β-[2-(5-Amino-1,2,4-Thiadiazol-3-yl)-(Z)-2-Fluoromethoxyiminoacetamido]-3-[(E)-3-(Carbamoylmethylethylmethylammonio)-1-Propenyl]-3-Cephem-4-Carboxylate]
3 | 0.2 (≈ 0.349 µM) | ≤ 0.025 | 0.8 (≈ 1.4 µM) | ≤ 0.025 | ≤ 0.025 | ≤ 0.025 | C[N+](C)(C/C=C/C1=C(C(=O)[O-])N2C(=O)[C@@H](NC(=O)/C(=N\OCF)c3nsc(N)n3)[C@H]2SC1)[C@H](CO)C(N)=O [Example 10, 7β-[2-(5-Amino-1,2,4-Thiadiazol-3-yl)-(Z)-2-fluoromethoxyiminoacetamido]-3-[(E)-3-[((R)-1-Carbamoyl-2-Hydroxyethyl)Dimethylammonio]-1-propenyl]-3-Cephem-4-Carboxylate]
